In the supplement of paper PMC10883282:

How the values were obtained:
Test in all cases: standardised AUC of viability dose-response curve (72 h) (fraction (0-1)); higher = less growth inhibition (more resistant)
[1] = tested on: A204
How it was run: (§1)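 Viability of sarcoma cell lines was read with ATPLite after 72 h of triplicate treatment in 384-well plates with 2.5 µl of compound from a compound-plate series of 10 mM to 0.0002 mM. Viability was scaled 1 (full) to 0 (none) and fitted with a four-parameter log-logistic model for each drug and cell line. The reported standardised area under the dose-response curve in log-dose space comes from a modified drexplorer computeAUC, where 1 is no response and 0 is full response.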

[2] = tested on: G401
How it was run: as §1

[3] = tested on: HS729
How it was run: as §1

[4] = tested on: HT1080
How it was run: as §1

[5] = tested on: KHOS-240S
How it was run: as §1

[6] = tested on: KHOS-NP
How it was run: as §1

[7] = tested on: MES-SA
How it was run: as §1

[8] = tested on: RD-ES
How it was run: as §1

[9] = tested on: RD
How it was run: as §1

[10] = tested on: SK-ES-1
How it was run: as §1

[11] = tested on: SK-LMS-1
How it was run: as §1

[12] = tested on: SW1353
How it was run: as §1

[13] = tested on: SW684
How it was run: as §1

[14] = tested on: SW872
How it was run: as §1

[15] = tested on: SW982
How it was run: as §1

[16] = tested on: SYO-1
How it was run: as §1

[17] = tested on: VA-ES-BJ
How it was run: as §1

## FC(F)(F)c1ccc(CNc2ccc(Cc3c[nH]c4ncc(Cl)cc34)cn2)cn1 [PEXIDARTINIB]
[1]
  standardised AUC: 0.837
[2]
  standardised AUC: 0.946
[3]
  standardised AUC: 0.903
[4]
  standardised AUC: 0.953
[5]
  standardised AUC: 0.975
[6]
  standardised AUC: 0.955
[7]
  standardised AUC: 0.978
[8]
  standardised AUC: 0.991
[9]
  standardised AUC: 1
[10]
  standardised AUC: 0.97
[11]
  standardised AUC: 0.979
[12]
  standardised AUC: 0.935
[13]
  standardised AUC: 0.974
[14]
  standardised AUC: 0.939
[15]
  standardised AUC: 1
[16]
  standardised AUC: 0.861
[17]
  standardised AUC: 0.976

## Cc1cn(-c2cc(NC(=O)c3ccc(C)c(Nc4nccc(-c5cnccn5)n4)c3)cc(C(F)(F)F)c2)cn1 [RADOTINIB]
[1]
  standardised AUC: 0.894
[2]
  standardised AUC: 0.977
[3]
  standardised AUC: 0.976
[4]
  standardised AUC: 0.997
[5]
  standardised AUC: 0.988
[6]
  standardised AUC: 0.992
[7]
  standardised AUC: 1
[8]
  standardised AUC: 0.996
[9]
  standardised AUC: 0.992
[10]
  standardised AUC: 0.999
[11]
  standardised AUC: 1
[12]
  standardised AUC: 1
[13]
  standardised AUC: 1
[14]
  standardised AUC: 0.967
[15]
  standardised AUC: 0.995
[16]
  standardised AUC: 0.929
[17]
  standardised AUC: 1

## CO[C@H]1C[C@@H]2CC[C@@H](C)[C@@](O)(O2)C(=O)C(=O)N2CCCC[C@H]2C(=O)O[C@H]([C@H](C)C[C@@H]2CC[C@@H](O)[C@H](OC)C2)CC(=O)[C@H](C)/C=C(\C)[C@@H](O)[C@@H](OC)C(=O)[C@H](C)C[C@H](C)/C=C/C=C/C=C/1C [RAPAMYCIN]
[1]
  standardised AUC: 0.607
[2]
  standardised AUC: 0.814
[3]
  standardised AUC: 0.944
[4]
  standardised AUC: 0.916
[5]
  standardised AUC: 0.815
[6]
  standardised AUC: 0.989
[7]
  standardised AUC: 0.489
[8]
  standardised AUC: 0.778
[9]
  standardised AUC: 0.712
[10]
  standardised AUC: 0.63
[11]
  standardised AUC: 0.665
[12]
  standardised AUC: 0.856
[13]
  standardised AUC: 0.763
[14]
  standardised AUC: 0.729
[15]
  standardised AUC: 0.724
[16]
  standardised AUC: 0.846
[17]
  standardised AUC: 0.589

## C=CC(=O)Nc1cccc(Nc2nc(Nc3ccc(N4CCN(C(C)=O)CC4)cc3OC)ncc2C(F)(F)F)c1 [ROCILETINIB]
[1]
  standardised AUC: 0.912
[2]
  standardised AUC: 0.886
[3]
  standardised AUC: 0.878
[4]
  standardised AUC: 0.973
[5]
  standardised AUC: 0.929
[6]
  standardised AUC: 0.975
[7]
  standardised AUC: 0.874
[8]
  standardised AUC: 0.857
[9]
  standardised AUC: 0.899
[10]
  standardised AUC: 0.831
[11]
  standardised AUC: 0.893
[12]
  standardised AUC: 0.889
[13]
  standardised AUC: 0.937
[14]
  standardised AUC: 0.912
[15]
  standardised AUC: 0.906
[16]
  standardised AUC: 0.867
[17]
  standardised AUC: 0.921

## CN(C)C[C@@H]1CCn2cc(c3ccccc32)C2=C(C(=O)NC2=O)c2cn(c3ccccc23)CCO1 [RUBOXISTAURIN]
[1]
  standardised AUC: 0.926
[2]
  standardised AUC: 0.954
[3]
  standardised AUC: 0.969
[4]
  standardised AUC: 0.995
[5]
  standardised AUC: 0.99
[6]
  standardised AUC: 0.99
[7]
  standardised AUC: 0.951
[8]
  standardised AUC: 0.945
[9]
  standardised AUC: 0.99
[10]
  standardised AUC: 0.911
[11]
  standardised AUC: 0.929
[12]
  standardised AUC: 0.947
[13]
  standardised AUC: 0.991
[14]
  standardised AUC: 0.953
[15]
  standardised AUC: 0.947
[16]
  standardised AUC: 0.861
[17]
  standardised AUC: 0.946

## CN1CCN(CCOc2cc(OC3CCOCC3)c3c(Nc4c(Cl)ccc5c4OCO5)ncnc3c2)CC1 [SARACATINIB]
[1]
  standardised AUC: 0.906
[2]
  standardised AUC: 0.918
[3]
  standardised AUC: 0.849
[4]
  standardised AUC: 0.981
[5]
  standardised AUC: 0.884
[6]
  standardised AUC: 0.951
[7]
  standardised AUC: 0.943
[8]
  standardised AUC: 0.955
[9]
  standardised AUC: 0.871
[10]
  standardised AUC: 0.931
[11]
  standardised AUC: 0.908
[12]
  standardised AUC: 0.865
[13]
  standardised AUC: 0.977
[14]
  standardised AUC: 0.858
[15]
  standardised AUC: 0.821
[16]
  standardised AUC: 0.851
[17]
  standardised AUC: 0.938

## CNC(=O)c1cc(Oc2ccc(NC(=O)Nc3ccc(Cl)c(C(F)(F)F)c3)cc2)ccn1 [SORAFENIB]
[1]
  standardised AUC: 0.756
[2]
  standardised AUC: 0.916
[3]
  standardised AUC: 0.943
[4]
  standardised AUC: 0.944
[5]
  standardised AUC: 0.93
[6]
  standardised AUC: 0.907
[7]
  standardised AUC: 0.925
[8]
  standardised AUC: 0.966
[9]
  standardised AUC: 0.951
[10]
  standardised AUC: 0.949
[11]
  standardised AUC: 0.917
[12]
  standardised AUC: 0.951
[13]
  standardised AUC: 0.936
[14]
  standardised AUC: 0.978
[15]
  standardised AUC: 0.975
[16]
  standardised AUC: 0.841
[17]
  standardised AUC: 0.95

## CCN(c1cc(-c2ccc(CN3CCOCC3)cc2)cc(C(=O)NCc2c(C)cc(C)[nH]c2=O)c1C)C1CCOCC1 [TAZEMETOSTAT]
[1]
  standardised AUC: 0.998
[2]
  standardised AUC: 0.989
[3]
  standardised AUC: 0.946
[4]
  standardised AUC: 0.988
[5]
  standardised AUC: 0.971
[6]
  standardised AUC: 0.963
[7]
  standardised AUC: 0.976
[8]
  standardised AUC: 0.985
[9]
  standardised AUC: 0.997
[10]
  standardised AUC: 0.96
[11]
  standardised AUC: 0.977
[12]
  standardised AUC: 0.973
[13]
  standardised AUC: 0.998
[14]
  standardised AUC: 0.986
[15]
  standardised AUC: 0.985
[16]
  standardised AUC: 0.971
[17]
  standardised AUC: 1

## Cc1cccc(-c2[nH]c(CNc3ccccc3F)nc2-c2ccc3ncnn3c2)n1 [VACTOSERTIB]
[1]
  standardised AUC: 0.982
[2]
  standardised AUC: 0.993
[3]
  standardised AUC: 0.917
[4]
  standardised AUC: 1
[5]
  standardised AUC: 0.957
[6]
  standardised AUC: 0.989
[7]
  standardised AUC: 0.991
[8]
  standardised AUC: 0.99
[9]
  standardised AUC: 0.996
[10]
  standardised AUC: 0.997
[11]
  standardised AUC: 0.995
[12]
  standardised AUC: 0.992
[13]
  standardised AUC: 0.959
[14]
  standardised AUC: 1
[15]
  standardised AUC: 0.995
[16]
  standardised AUC: 0.911
[17]
  standardised AUC: 1

## C[C@@H]1COC(Nc2ccc3ncnc(Nc4ccc(OCc5nccs5)c(Cl)c4)c3c2)=N1 [VARLITINIB]
[1]
  standardised AUC: 0.918
[2]
  standardised AUC: 0.953
[3]
  standardised AUC: 0.955
[4]
  standardised AUC: 0.974
[5]
  standardised AUC: 0.975
[6]
  standardised AUC: 0.992
[7]
  standardised AUC: 0.954
[8]
  standardised AUC: 0.989
[9]
  standardised AUC: 1
[10]
  standardised AUC: 0.97
[11]
  standardised AUC: 0.987
[12]
  standardised AUC: 0.928
[13]
  standardised AUC: 0.994
[14]
  standardised AUC: 0.962
[15]
  standardised AUC: 0.975
[16]
  standardised AUC: 0.97
[17]
  standardised AUC: 0.994

## CC[C@@H]1C(=O)N(C)c2cnc(Nc3ccc(C(=O)N[C@H]4CC[C@H](N5CCN(CC6CC6)CC5)CC4)cc3OC)nc2N1C(C)C [VOLASERTIB]
[1]
  standardised AUC: 0.647
[2]
  standardised AUC: 0.653
[3]
  standardised AUC: 0.766
[4]
  standardised AUC: 0.601
[5]
  standardised AUC: 0.534
[6]
  standardised AUC: 0.642
[7]
  standardised AUC: 0.555
[8]
  standardised AUC: 0.504
[9]
  standardised AUC: 0.533
[10]
  standardised AUC: 0.52
[11]
  standardised AUC: 0.635
[12]
  standardised AUC: 0.723
[13]
  standardised AUC: 0.693
[14]
  standardised AUC: 0.578
[15]
  standardised AUC: 0.547
[16]
  standardised AUC: 0.453
[17]
  standardised AUC: 0.531
